Laboratory results reported in ChEMBL document CHEMBL5150064 (J Med Chem, 2022).
In brackets after ≈: the same amount, converted by molar mass. Activity calls are given as the source filed them. The rule behind the calls is not given here.

Key:
[1] = target: T1, Phosphatidylinositol 4,5-bisphosphate 3-kinase catalytic subunit delta isoform (Homo sapiens) (UniProt O00329); assay: Inhibition of PI3Kdelta in human B-cells assessed as reduction in CD69 expression preincubated for 1 hr followed by IgM stimulation for 18 hrs by flow cytometry analysis; type: cell-based; conditions: B-cell
T1 sequence (whole entry): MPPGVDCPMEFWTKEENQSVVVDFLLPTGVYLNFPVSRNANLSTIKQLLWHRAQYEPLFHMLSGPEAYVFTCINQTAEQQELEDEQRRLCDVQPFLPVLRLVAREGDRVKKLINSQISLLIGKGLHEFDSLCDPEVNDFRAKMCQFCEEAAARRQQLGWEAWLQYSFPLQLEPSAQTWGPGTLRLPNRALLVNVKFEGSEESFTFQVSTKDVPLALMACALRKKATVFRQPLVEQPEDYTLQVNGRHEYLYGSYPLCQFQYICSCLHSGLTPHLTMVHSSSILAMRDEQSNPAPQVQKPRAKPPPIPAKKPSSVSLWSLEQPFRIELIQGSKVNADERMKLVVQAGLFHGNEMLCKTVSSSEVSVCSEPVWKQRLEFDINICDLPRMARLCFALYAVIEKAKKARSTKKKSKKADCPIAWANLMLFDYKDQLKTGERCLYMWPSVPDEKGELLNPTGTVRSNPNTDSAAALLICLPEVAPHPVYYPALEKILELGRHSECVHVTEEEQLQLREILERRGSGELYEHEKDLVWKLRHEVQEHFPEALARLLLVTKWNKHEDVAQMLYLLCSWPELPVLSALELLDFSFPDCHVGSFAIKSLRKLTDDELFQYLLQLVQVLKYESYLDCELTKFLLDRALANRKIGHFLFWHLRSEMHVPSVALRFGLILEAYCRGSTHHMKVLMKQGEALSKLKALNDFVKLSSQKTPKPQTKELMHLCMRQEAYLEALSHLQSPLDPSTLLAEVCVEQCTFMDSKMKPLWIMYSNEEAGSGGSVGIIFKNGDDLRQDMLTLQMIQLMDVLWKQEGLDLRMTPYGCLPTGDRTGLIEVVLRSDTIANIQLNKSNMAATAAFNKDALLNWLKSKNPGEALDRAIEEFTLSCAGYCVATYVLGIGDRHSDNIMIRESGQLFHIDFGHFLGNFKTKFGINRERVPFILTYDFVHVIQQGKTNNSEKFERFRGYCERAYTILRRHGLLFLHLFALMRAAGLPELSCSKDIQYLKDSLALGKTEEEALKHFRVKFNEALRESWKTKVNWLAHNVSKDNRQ

[2] = Lipophilicity, logD of compound in 1-Octanol/PBS at pH 7.4 by LC-MS/MS method; type: physicochemical
[3] = Apparent permeability across apical to basolateral side in MDCK cells at 10 uM measured upto 180 mins by LC-MS/MS method; type: ADME, cell-based, Canis lupus familiaris; conditions: dog
[4] = Kinetic solubility of the compound at pH 7.4; type: physicochemical; conditions: buffer, read-out: Kinetic_solubility
[5] = species: Homo sapiens; assay: Selectivity ratio of Ki for PI3Kdelta (unknown origin) to Ki for PI3Kalpha (unknown origin)
[6] = tested on: Phosphatidylinositol 4,5-bisphosphate 3-kinase catalytic subunit alpha isoform (Homo sapiens), P42336 [H1047R]; assay: Inhibition of PI3Kalpha H1047R mutant in human HCC1954 cells assessed as reduction in PRAS40 phosphorylation after 24 hrs by electrochemiluminescent assay
[7] = tested on: Phosphatidylinositol 4,5-bisphosphate 3-kinase catalytic subunit alpha isoform (Homo sapiens), P42336 [H1047R]; assay: Induction of P110alpha H1047R mutant degradation in human HCC1954 cells at 0.012 to 1 uM after 24 hrs; type: cell-based; conditions: dose 0.012-1 µM
[8] = target: Phosphatidylinositol 4,5-bisphosphate 3-kinase catalytic subunit alpha isoform (Homo sapiens, UniProt P42336, H1047R)
[9] = Oral bioavailability in Sprague-Dawley rat plasma at 5 mg/kg measured upto 8 hrs by LC-MS/MS method; type: ADME, organism-based
[10] = Clearance in Sprague-Dawley rat plasma at 1 mg/kg, iv measured upto 8 hrs by LC-MS/MS analysis; type: ADME, organism-based
[11] = target: T2, Phosphatidylinositol 4,5-bisphosphate 3-kinase catalytic subunit alpha isoform (Homo sapiens, UniProt P42336); assay: Inhibition of PI3Kalpha in human HDQ-P1 cells assessed as reduction in PRAS40 phosphorylation after 24 hrs by electrochemiluminescent assay; type: cell-based
[12] = target: T2, Phosphatidylinositol 4,5-bisphosphate 3-kinase catalytic subunit alpha isoform; assay: Inhibition of PI3Kalpha (unknown origin) using PIP2:3PS as substrate in presence of ATP measured after 120 mins by ADP-Glo assay
[13] = species: Homo sapiens; assay: Selectivity ratio of EC50 for PI3Kalpha H1047R mutant in human HCC1954 cells assessed as reduction in PRAS40 phosphorylation to EC50 for wild type PI3Kalpha in human HDQ-P1 cells assessed as reduction in PRAS40 phosphorylation; type: cell-based
[14] = species: Homo sapiens; assay: Selectivity ratio of IC90 for inhibition of PI3Kdelta in human B-cells assessed as reduction in CD69 expression to EC50 for inhibition of PI3Kalpha H1047R mutant in human HCC1954 cells; type: cell-based
[15] = Oral bioavailability in Sprague-Dawley rat plasma at 3 mg/kg measured upto 8 hrs by LC-MS/MS method; type: ADME, organism-based

T2 sequence (P42336 whole entry, canonical isoform): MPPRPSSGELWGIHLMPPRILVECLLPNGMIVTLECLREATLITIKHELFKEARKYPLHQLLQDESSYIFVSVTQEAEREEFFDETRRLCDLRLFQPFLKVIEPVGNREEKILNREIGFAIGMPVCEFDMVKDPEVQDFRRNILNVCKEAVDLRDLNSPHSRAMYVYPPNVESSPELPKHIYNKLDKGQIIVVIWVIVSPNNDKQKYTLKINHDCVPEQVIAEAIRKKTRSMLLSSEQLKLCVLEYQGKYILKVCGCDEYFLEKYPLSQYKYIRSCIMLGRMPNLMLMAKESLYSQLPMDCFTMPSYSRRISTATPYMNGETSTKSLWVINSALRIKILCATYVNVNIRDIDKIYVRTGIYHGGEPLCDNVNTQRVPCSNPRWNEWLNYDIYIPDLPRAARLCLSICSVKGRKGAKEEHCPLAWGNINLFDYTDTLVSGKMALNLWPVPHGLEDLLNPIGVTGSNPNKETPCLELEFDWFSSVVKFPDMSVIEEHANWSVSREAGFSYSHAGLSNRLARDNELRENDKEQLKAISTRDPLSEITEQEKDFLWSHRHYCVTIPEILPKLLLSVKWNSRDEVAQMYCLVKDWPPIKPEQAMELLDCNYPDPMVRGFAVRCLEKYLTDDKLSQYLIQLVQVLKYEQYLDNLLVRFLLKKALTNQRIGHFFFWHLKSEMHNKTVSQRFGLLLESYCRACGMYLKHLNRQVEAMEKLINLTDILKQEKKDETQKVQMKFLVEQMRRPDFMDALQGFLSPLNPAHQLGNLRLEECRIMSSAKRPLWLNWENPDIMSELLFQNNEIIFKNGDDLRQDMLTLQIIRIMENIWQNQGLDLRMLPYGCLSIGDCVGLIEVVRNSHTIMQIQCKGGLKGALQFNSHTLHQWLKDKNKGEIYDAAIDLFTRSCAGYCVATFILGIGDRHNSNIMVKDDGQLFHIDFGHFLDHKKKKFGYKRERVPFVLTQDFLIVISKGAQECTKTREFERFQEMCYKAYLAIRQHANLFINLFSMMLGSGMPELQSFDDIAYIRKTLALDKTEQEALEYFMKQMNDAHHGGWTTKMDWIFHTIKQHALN
Chain of Phosphatidylinositol 4,5-bisphosphate 3-kinase catalytic subunit alpha isoform (Homo sapiens, UniProt P42336, H1047R) (P42336 whole entry H1047R, canonical isoform): as the sequence (P42336 whole entry, canonical isoform) above, with H1047R counted along it
Chain of Phosphatidylinositol 4,5-bisphosphate 3-kinase catalytic subunit alpha isoform (Homo sapiens), P42336 [H1047R] (P42336 whole entry H1047R, canonical isoform): as the sequence (P42336 whole entry, canonical isoform) above, with H1047R counted along it

| SMILES | IC90 [1] | logD [2] | Papp A→B at 3 h, 10 µM [3] | solubility kinetic [4] | Ratio Ki [5] | inhibition [6] | Activity [7] | EC50 [8] | bioavailability [9] | clearance [10] | EC50 [11] | Ki [12] | bioavailability [15] | Ratio EC50 [13] | Selectivity ratio [14] |
| --- | --- | --- | --- | --- | --- | --- | --- | --- | --- | --- | --- | --- | --- | --- | --- |
| CC(C)n1ncnc1-c1cn2c(n1)-c1ccc(O[C@@H](C)C(N)=O)cc1OCC2 | 147 nM | 1.9 |  |  |  |  |  |  |  |  |  |  |  |  |  |
| Cc1nc(-c2cn3c(n2)-c2ccc(-c4cnn(C(C)(C)C(N)=O)c4)cc2OCC3)n(C(C)C)n1 [TASELISIB] | 3.1 nM | 2.3 |  |  |  |  |  |  |  |  |  |  |  |  |  |
| NC(=O)[C@@H](Nc1ccc2c(c1)OCCn1cc(N3C(=O)OC[C@H]3C(F)F)nc1-2)C1CC1 | 307 nM | 1.2 | 3.2 ×10⁻⁶ cm/s |  |  |  | Active | 28 nM | 41% | 67 mL/min/kg |  |  |  |  |  |
| NC(=O)[C@@H]1CCCN1c1ccc2c(c1)OCCn1cc(N3CC[C@H](O)C3=O)nc1-2 |  | 0.4 | 0.3 ×10⁻⁶ cm/s | 143 µM (≈ 56.8 µg/mL) | 13 |  |  | 63 nM | 9% | 27 mL/min/kg | 327 nM | 0.355 nM |  | 5.2 |  |
| NC(=O)[C@@H](Nc1ccc2c(c1)OCCn1cc(N3C(=O)OC[C@H]3C(F)(F)F)nc1-2)C1CC1 |  | 1.2 | 1.1 ×10⁻⁶ cm/s |  | 285 |  |  | 52 nM |  | 94 mL/min/kg |  | 0.1 nM | 98% | 1.1 |  |

Further lines, with some results ahead:

| IC90 [1] | logD [2] | Papp A→B at 3 h, 10 µM [3] | solubility kinetic [4] | Ratio Ki [5] | inhibition [6] | Activity [7] | EC50 [8] | bioavailability [9] | clearance [10] | EC50 [11] | Ki [12] | bioavailability [15] | SMILES | Ratio EC50 [13] | Selectivity ratio [14] |
| --- | --- | --- | --- | --- | --- | --- | --- | --- | --- | --- | --- | --- | --- | --- | --- |
|  | 0.8 | 2.6 ×10⁻⁶ cm/s | 159 µM (≈ 66.1 µg/mL) | 46 | Active | Active |  |  |  |  |  |  | NC(=O)[C@@H]1CCCN1c1ccc2c(c1)OCCn1cc(N3C(=O)OC[C@H]3CF)nc1-2 |  |  |
| 103 nM | 1.3 | 4.3 ×10⁻⁶ cm/s | 11 µM (≈ 4.77 µg/mL) | 34 | Active | Active |  | 35% | 41 mL/min/kg |  |  |  | NC(=O)[C@@H]1CCCN1c1ccc2c(c1)OCCn1cc(N3C(=O)OC[C@H]3C(F)F)nc1-2 |  | 6.4 |
